# Values of other authors in US8389024B2, “Abscisic acid against cancer” (priority 2005, dated 2013).
# Where two headings read alike, the source gives them in different places.
# How the values were obtained:
# [1] = the mentioned concentration (50 mg/ml), Sigma-Aldrich
# [2] = test system: leaf discs of V. Faba
# [3] = test system: head and neck squamous cell carcinoma; settings: in vivo
# [4] = test system: lymphoblastic leukemia, prostate, breast and melanoma human cancer cells
# [5] = test system: C 1498 transplanted tumor with myeloid leukemia; settings: for rate of survival at the end of 14 days: groups of 10 mice, treated 7 days; for survival: oral
# [6] = test system: humans with cancer; settings: 62 random cases, inconclusive cases not considered; digestive treatment with ABA plus vaccine against P. crytocides
# [7] = test system: Lemna gibba G1
# [8] = test system: stomatal opening; settings: 10 mcM ABA extracellular application
# [9] = test system: four human cancer cell lines (HELA, DU145, HCT116 AND K562)
# [10] = test system: a variety of tumor cells
# [11] = test system: DU-145 (prostate cancer); settings: DU-145 tumor cells
# [12] = test system: HL-60 (promyelocytic leukemia); settings: HL-60 tumor cells
# [13] = test system: TCA8113 (human oral carcinoma); settings: TCA8113 cells in vitro
# [14] = test system: nuclear protein Ki67
# [15] = test system: human granulocytes
# [16] = test system: TNFALFA; settings: human monocytes, murine microglia and murine macrophages
# [17] = test system: human and murine pancreatic beta cells
compound,measurement,setting,value
CC1=CC(=O)CC(C)(C)C1(O)/C=C/C(C)=C\C(=O)O (racemic) [(+/−)-Abscisic acid],appearance of the solution in ethanol,[1],clear to slightly hazy
CC1=CC(=O)CC(C)(C)C1(O)/C=C/C(C)=C\C(=O)O (racemic) [racemic ABA (R)],half-lives (catabolism),[2],30 to 32 h
CC1=C(/C=C/C(C)=C/C=C/C(C)=C\C(=O)O)C(C)(C)CCC1 [ISOTRETINOIN],effectiveness in chemoprevention trial,[3],not effective
"CC/C=C\C[C@H]1C(=O)CC[C@@H]1CC(=O)O [JA, jasmonic acid]",proliferation or apoptosis of mammalian cancer cells,[4],can suppress the proliferation or cause apoptosis
"CC/C=C\CC1C(=O)CCC1CC(=O)OC (stereo not drawn) [MJ, methyl jasmonate]",proliferation or apoptosis of mammalian cancer cells,[4],can suppress the proliferation or cause apoptosis
"O=C([O-])c1ccccc1O.[Na+] [SA, sodium salicylate]",proliferation or apoptosis of mammalian cancer cells,[4],can suppress the proliferation or cause apoptosis
CC1=CC(=O)CC(C)(C)[C@@]1(O)/C=C/C(C)=C\C(=O)O [natural ABA (S)],half-lives (catabolism),[2],6 to 8 h
"[S-(Z,E)]-5-(1-Hydroxy-2,6,6-trimethyl-4-oxo-2-cyclohexen-1-yl)-3-methyl-2,4-pentadienoic acid [ABA]",rate of survival at the end of 14 days,"[5]; Group II, ABA 1 mg/kg (i.p)",9 survivors
same,rate of survival at the end of 14 days,"[5]; Group III, ABA 10 mg/kg (i.p)",10 survivors
same,rate of survival at the end of 14 days,"[5]; Group IV, ABA 10 mg/kg (oral)",6 survivors
same,rate of survival at the end of 14 days,"[5]; Group V, ABA 100 mg/kg (oral)",9 survivors
same,survivors,"[5]; group number II, 1 mg/kg",90%
same,inhibition of the tumor system (C1498) in mice (C57BL/6J),"[5]; mouse, in vivo",marked effect in the inhibition
same,survival,[5]; dose at 10 mg/kg,60%
same,survival,[5]; dose at 100 mg/kg,90%
same,success rate,[6],around 82%
same,EPD after ABA treatment,"[7]; after 15 hours ABA treatment, from −109 mV",−194 mV
same,potential increase in average (EPD),[7]; treatment with 10-100 mcm ABA,85 mV
same,inhibition of stomatal opening,[8]; pH 6.15,98%
same,inhibition of stomatal opening,[8]; pH 8.0,57%
same,apoptosis,[9],induction of apoptosis
same,cell cycle progression,[9],changed cell cycle progression
same,cell proliferation rate,[9],reduced cell proliferation rate
same,luminescence (indicator of reduced negative surface charge),[9],reduced luminescence
same,tumor growth,[9],tumor growth reduction
same,angiogenesis,[10],inhibit angiogenesis
same,apoptosis,[10],produce apoptosis
same,cell cycle and cell division of proliferating tumor cells,[10],make proliferating tumor cells stagnate in S-phase and stop cell division
same,differentiation of cancer cells,[10],become cancer cells in normal cells
same,changes in morphology of cancer cells,[11],growth in poor condition and nuclear pycnosis
same,changes in morphology of cancer cells,[12],absence of tumor cell nuclear membrane microvilli and presentation of typical apoptosis characteristics
same,expression of differentiation and apoptosis markers,[13],"expression of RARBETA, involucrin protein and caspase-3 mRNA"
same,nuclear protein Ki67 expressed in proliferating tumor cells,[14],reduced
same,functional activities of human granulocytes,[15],"stimulates several functional activities as phagocytosis, reactive oxygen species (ROS) and nitric oxide production, and chemotaxis"
same,TNFALFA,[16],increased
same,insulin secretion,[17],endogenous stimulator of insulin secretion
